Data reported in patent US12215354B2, “Differentiation of human embryonic stem cells into single hormonal insulin positive cells” (Janssen Biotech, Inc., priority 2011, dated 2025).

Tested on: human embryonic stem cell line H1
Assay: Real-time PCR gene expression, timing of BMP inhibition at stage 3 (Example 3)
Format: cell-based
Protocol: Cells of the human embryonic stem cell line H1 at various passages (passage 40 to passage 52) were seeded as single cells at a density of 100,000 cells/cm^2 on MATRIGEL™ (1:30 dilution) coated dishes in mTesr™1 media supplemented with 10 μM of Y27632. Forty eight hours post seeding, cultures were differentiated into cells of the pancreatic endocrine lineage as follows: • a. Stage 1 (Definitive Endoderm (DE)−4 days): Prior to start of DE, the cells were washed and incubated with incomplete PBS (no Mg or Ca) for 30 seconds followed by incubation in S1 media. Human embryonic stem cells cultured as single cells on MATRIGEL™-coated dishes were treated for one day with MCDB-131 medium supplemented with 0.1% fatty acid-free BSA, 0.0012 g/ml sodium bicarbonate, 1× GLUTAMAX™, 2.5 mM D-Glucose, 100 ng/ml GDF8, 1.5 μM MCX compound (GSK3B inhibitor). Cells were then treated for […] (days 2-4) with MCDB-131 medium supplemented with 0.1% fatty acid-free BSA, 0.0012 g/ml sodium bicarbonate, 1× GLUTAMAX™, 2.5 mM glucose, and 100 ng/ml GDF8. • b. Stage 2 (Primitive gut tube−3 days): Stage 1 cells were treated for three days with MCDB-131 medium supplemented with 0.1% fatty acid-free BSA, 0.0012 g/ml sodium bicarbonate, 1× GLUTAMAX™, 2.5 mM D-Glucose, and 50 ng/ml FGF7. • c. Stage 3 (Foregut−3 days): Stage 2 cells were treated with MCDB-131 medium supplemented with a 1:200 dilution of ITS-X, 2.5 mM Glucose, 1× GLUTAMAX™, 0.0015 g/ml sodium bicarbonate, 2% fatty acid-free BSA, 0.25 μM SANT-1, 20 ng/ml of Activin-A, 2 μM RA, 50 ng/ml FGF7, 100 nM LDN-193189 (on day 1 only or for the duration of stage 3), and 200 nM TPB. In some cultures, LDN-193189 was removed from stage 3. • d. Stage 4 (Pancreatic foregut precursor-3 days): Stage 3 cells were treated with MCDB-131 medium supplemented with a 1:200 dilution of ITS-X, 2.5 mM Glucose, 1× GLUTAMAX™, 0.0015 g/ml sodium bicarbonate, 2% fatty acid-free BSA, 0.25 μM SANT-1, 100 nM TPB, 200 nM LDN-193189, 2 μM ALk5 inhibitor, and 100 nM CYP26A inhibitor for three days. • e. […]

[1] = at stage 4, 100 nM LDN-193189 on first day of stage 3, removed at days 2-3

c1ccc2c(-c3cnn4cc(-c5ccc(N6CCNCC6)cc5)cnc34)ccnc2c1 [LDN-193189]
expression of SOX2 (at S3-S4, LDN-193189 retained for the duration of stage 3): very high expression | CDX2 and SOX2 expression [1]: decreasing | expression of NGN3 and NeuroD [1]: significantly boosted
